# Data reported in patent publication US10054581B1, “Inhibitors of notch signaling pathway and use thereof in treatment of cancers” (Ecole Polytechnique Federale de Lausanne (EPFL), priority 2011, dated 2018).
# “Also recorded” adds a separate entry of the source.
# Columns and labels:
# [1] = system: active form of Notch1 (NICD); experiment: NICD Western blot (VAL1744) in DL4:N1 HeLa coculture; assay type: cell-based, human; details: DL4- and N1-HeLa coculture, DAPT 10 μM, 24 hours
# Procedure: Cells were lysed in RIPA buffer (50 mM Tris.Cl, pH 7.5, 150 mM NaCl, 1% nonidet P-40, 0.5% sodium deoxycholate and 0.1% SDS) for 30 minutes at 4° C. Lysed cells were centrifuged to remove the debris at 14000 rpm at 4° C. Supernatant was transferred to a new eppendorf tube. The protein concentration was determined by Bradford assay using spectrophotometer (Ultrospec 3000 pro). 40 μg of protein were denatured in 1×SDS gel loading buffer (100 mM Tris.Cl, pH 6.8, 200 mM DTT, 4% SDS, 0.2% bromophenol, 20% glycerol) by heating at 99° C. for 5 minutes. Denatured protein samples were stored on ice until loading on to the acrylamide gel. The samples were run on 8% or 10% acrylamide gel in Tris-glycine electrophoresis buffer (25 mM Tris, 250 mM glycine, 0.1% SDS). […]
# For immunoblotting, membranes were blocked with 5% milk and incubated overnight with primary antibodies at 4° C. […] Signal was detected with Super Signal West chemiluminescent substrate (Thermo Scientific, catalog number 34077).
# To assess the Notch pathway activation potential of the stable cell lines, DL4 and N1 stable HeLa cells (DL4-HeLa and N1-HeLa, respectively) were cocultured in 1:1 ratio in a 6-well plate and grown to confluency. […] On the other hand, in the absence of ligand (DL4-HeLa cells) or in the presence of GSI (DAPT) NICD levels were not detected, indicating a loss of Notch signalling (data not shown). […]
# [2] = system: Notch2-intracellular domain (N2-ICD); experiment: N2-ICD mediated pathway activation, luciferase reporter; assay type: cell-based
# [3] = system: HPB ALL; experiment: Annexin V apoptosis, HPB ALL; assay type: cell-based, human; details: 10 μM, 7 days
# Procedure: FIGS. 6A-6D show 6-(4-Tert-Butylphenoxy)Pyridin-3-Amine (I3) induces G0/G1 cell cycle arrest and apoptosis in human T cell acute lymphoblastic leukemia cell lines and human breast cancer cell line HCC1187. […] Percentage of Annexin V positive (apoptotic) cell population was measured using flow cytometry.
# To quantitate the percentage of apoptotic cells, AnnexinV and 7AAD staining was performed. Thymic cells were suspended in 300 μl of 1× AnnexinV binding buffer (BD Biosciences, San Diego, USA) and incubated with 10 μl of AnnexinV-Cy5 antibody and 10 μl of 7AAD (BD Biosciences, San Diego, USA). Samples were incubated for 15 minutes at room temperature. FACS was performed with in one hour of antibody staining.
# This 6-(4-Tert-Butylphenoxy)Pyridin-3-Amine (I3) mediated proliferative arrest could be due to induction of apoptosis or cell cycle arrest during different phases of cell cycle. […] Therefore to further elucidate the mechanisms responsible for 6-(4-Tert-Butylphenoxy)Pyridin-3-Amine (I3) mediated proliferative arrest cell cycle and apoptosis analyses were carried out. […] To investigate cell death, Annexin V staining was performed and proportion of apoptotic (AnnexinV positive) cell population was determined by flow cytometry analyses after 7 days of treatment.
# [4] = system: RPMI 8402 leukemic cells; experiment: RPMI 8402 xenotransplantation in NOD/SCID γc−/− mice; assay type: in vivo, human
# Procedure: FIGS. 8A-8B show 6-(4-Tert-Butylphenoxy)Pyridin-3-Amine (I3) treatment increases latency of leukemia development in mice. […] On day 15, leukemic cells were established in the bone marrow. Mice were treated with oil or 6-(4-Tert-Butylphenoxy)Pyridin-3-Amine (I3) for every day. Mice were imaged on day 27 using Caliper IVIS (Xenogen) live imaging system. Red and blue colour indicates the intensity of luciferase signal and correlates with the number of leukemic cells. […] NOD/SCID γc^−/− mice were transplanted with 5×10^5 RPMI 8402 (luciferase expressing) cells. Leukemia development was followed using Caliper IVIS (Xenogen) live imaging system. […]
# The human leukemic cell lines RPMI 8402 and HPB ALL were transduced with a lentivirus containing luciferase gene constitutively expressed downstream of a CMV promoter. […] Mice were monitored for tumor development using Caliper IVIS (Xenogen) live imaging system. […]
# Similarly in a preliminary experiment, NOD/SCID γc^−/− mice were transplanted with 5×10^5 RPMI 8402 cells and treated with oil or 6-(4-Tert-Butylphenoxy)Pyridin-3-Amine (I3) following the establishment of the disease. […] Since these animals were treated with the chemical compound 6-(4-Tert-Butylphenoxy)Pyridin-3-Amine (I3) for 27 days, the intestinal tissue was analyzed to detect any toxicity in the gut.
Structure (SMILES),NICD levels (Western blot) [1],pathway activation by N2-ICD [2],apoptosis (Annexin V positive cells) [3],"leukemia development (luciferase live imaging) ([4]; 5×10^5 cells, daily treatment for 27 days after establishment of disease, preliminary experiment)",metastatic lesions in the liver (histology) ([4]; daily treatment for 27 days)
"C[C@H](NC(=O)Cc1cc(F)cc(F)c1)C(=O)N[C@H](C(=O)OC(C)(C)C)c1ccccc1 [DAPT, N—[N-(3,5-difluorophenacetyl-Lalanyl)]-(S)-phenylglycine t-butyl ester, reference compound]",can be blocked by DAPT treatment,–,–,–,–
"CC(C)(C)c1ccc(Oc2ccc(N)cn2)cc1 [I3, 6-(4-Tert-Butylphenoxy)Pyridin-3-Amine]",–,could also block pathway activation by Notch1-intracellular domain (NICD) and Notch2-intracellular domain (N2-ICD); also recorded: inhibits pathway activation via intracellular domains of Notch1 (NICD) and Notch2 (N2-ICD),induces significant apoptosis,blocks RPMI 8402 leukemic cell growth in xenotransplantation assay,did not develop any metastatic lesions in the liver
